The values that follow come from patent publication US6558699B2, “High drug load immediate and modified release oral dosage formulations and processes for their manufacture” (SmithKline Beecham Corporation, priority 1997, dated 2003).

A short description of data set [1]: Hydrate formation during wet granulation (TGA, DSC, XRD). It counts as physicochemical. The following applies: wet granulation with water. The text has this: FIGS. 1(A), 2(A) and 3(A) show, respectively, the thermogravimetric analysis (TGA), the differential scanning calorimetric (DSC) thermogram and the powder X-ray diffraction (XRD) pattern of the free base of anhydrous (E)-α-[2-n-butyl-1-[(4-carboxyphenyl)methyl]-1H-imidazol-5-yl]methylene-2-thiophenepropionic acid.
FIGS. 1B-D, 2B-D and 3B-D show, respectively, the thermogravimetric analysis (TGA), the differential scanning calorimetric (DSC) thermogram and the powder X-ray diffraction (XRD) patterns for the granulations of the free base of anhydrous (E)-α-[2-n-butyl-1-[(4-carboxyphenyl)methyl]-1H-imidazol-5-yl]methylene-2-thiophenepropionic acid with different binders and binder-diluent combinations.
FIGS. 1B, 2B and 3B show, respectively, the thermogravimetric analysis (TGA), the differential scanning calorimetric (DSC) thermogram and the powder X-ray diffraction (XRD) patterns for the granulations of (E)-α-[2-n-butyl-1-[(4-carboxyphenyl)methyl]-1H-imidazol-5-yl]methylene-2-thiophenepropionic acid with Starch 1551 (96/4 eprosartan free base/Starch 1551). […]

The nature of data set [2]: Human clinical studies (tolerability and pharmacokinetics). The following applies: for safety and tolerability: human clinical studies, doses up to 800 mg per day. It counts as in vivo.
Data set [3] in a line: Drug release from enteric-coated modified release tablets and drug solubility at the initiation pH. The following applies: pH >4.0 (PVAP), >5.0 (HPMCP), 5.5 (Eudragit). The text has this: Tablets of Formulas 1-4 may be optionally provided with an aqueous film coating. Generally, these tablets are coated first with a polymer solution to form a clear film, and then coated with an aqueous polymer solution/suspension to form an opaque, white or colored film. […] In contrast, tablets of Formulas 5-7 are first coated with an aqueous polymer solution to form a clear film (often called seal coat) and then with an aqueous solution/suspension of an enteric polymer such as Eudragit L30D, hydroxypropyl methycellulose acetate phthalate (HPMCP), cellulose acetate phthalate (CAP) or polyvinyl acetate phthalate (PVAP). The weight gains following seal coat and enteric coat are about 3-6% and 4-12% (most preferably 3-4% and 4-6%) respectively. The modified release tablets thus produced release <20% drug in the stomach following the oral administration and rapidly release the drug at higher pHs, depending on the polymer used (for e.g., at a pH >4.0 for PVAP, >5.0 for HPMCP and 5.5 for Eudragit), even though the drug solubility at these initiation pHs is negligible. The water imbibed into the tablets dissolves arginine creating a high pH environment in which Eprosartan dissolves. This high pH also dissolves the film coating, releasing the drug substance to the environment.

The structures appear in SMILES notation.

As usually defined, the bioavailability is the share of a dose that reaches the circulation, judged against a reference dose that is usually intravenous. For the compound `CCCCc1ncc(/C=C(\Cc2cccs2)C(=O)O)n1Cc1ccc(C(=O)O)cc1.CS(=O)(=O)O` [(E)-α-[2-n-Butyl-1-[(4-carboxyphenyl)-methyl]-1H-imidazol-5-yl]methylene-2-thiophenepropionic acid monomethanesulfonate], in data set [1], the “hydrate formation during wet granulation” value is on record as “forms a dihydrate”. Moreover, the safety and tolerability entry in data set [2] is “safe and well tolerated”. Moreover, the bioavailability in data set [2] (human, in vivo, oral, read-out: mean absolute bioavailability) was roughly 13%.

Consider `CCCCc1ncc(/C=C(\Cc2cccs2)C(=O)O)n1Cc1ccc(C(=O)O)cc1` [Eprosartan, (E)-α-[2-n-Butyl-1-[(4-carboxyphenyl)methyl]-1H-imidazol-5-yl]methylene-2-thiophenepropionic acid], for which, in data set [1], the “hydrate formation during wet granulation” value was “does not form a hydrate”. In data set [2], the safety and tolerability result is “safe and well tolerated”. The “drug solubility at the initiation pHs” value in data set [3] is “negligible”.
